Source: US6548270B1, “DNA encoding human acid-sensing ion channel BNaC4 (ASIC4)” (Ortho-McNeil Pharmaceutical, Inc., priority 2000, dated 2003)

Legend:
[1] = molecular target: T1, ASIC1B (Rattus norvegicus, UniProt P55926); conditions: read-out: Amiloride sensitivity, IC50; cited from earlier work
T1 sequence (P55926 1-559 isoform P55926-3): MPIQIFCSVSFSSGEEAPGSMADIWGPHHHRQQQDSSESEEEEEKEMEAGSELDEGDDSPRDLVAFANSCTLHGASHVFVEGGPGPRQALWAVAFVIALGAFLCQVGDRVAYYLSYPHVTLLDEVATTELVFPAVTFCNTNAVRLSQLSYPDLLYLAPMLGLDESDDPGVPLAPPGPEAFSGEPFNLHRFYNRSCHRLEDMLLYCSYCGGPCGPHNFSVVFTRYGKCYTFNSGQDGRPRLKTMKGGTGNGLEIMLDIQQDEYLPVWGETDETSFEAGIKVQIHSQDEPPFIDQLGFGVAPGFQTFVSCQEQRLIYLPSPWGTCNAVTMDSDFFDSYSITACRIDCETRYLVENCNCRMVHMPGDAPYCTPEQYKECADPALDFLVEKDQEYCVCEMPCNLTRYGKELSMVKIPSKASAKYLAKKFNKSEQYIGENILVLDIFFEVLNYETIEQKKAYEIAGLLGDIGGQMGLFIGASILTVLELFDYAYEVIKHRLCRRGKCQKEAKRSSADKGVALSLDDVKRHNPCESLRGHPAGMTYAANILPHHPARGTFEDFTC

[2] = test system: ASIC2a; conditions: ASIC2a gain of function mutant channels; cited from earlier work
[3] = molecular target: T2, human BNaC4 (Homo sapiens, UniProt Q96FT7); test: pH 4.5-elicited current in HEK293 cells transiently expressing human BNaC4 (whole cell patch clamp); format: cell-based; set-up: achieved by transfection of full-length human BNaC4 cDNA into a mammalian host cell; expressed in transfected cells; host or cells: HEK293, transient co-transfection of phBNaC4 (pCI Neo) and pEGFP; conditions: 500 uM amiloride; HEK293 cells transfected with hBNaC4; n=3
T2 sequence (Q96FT7 1-539): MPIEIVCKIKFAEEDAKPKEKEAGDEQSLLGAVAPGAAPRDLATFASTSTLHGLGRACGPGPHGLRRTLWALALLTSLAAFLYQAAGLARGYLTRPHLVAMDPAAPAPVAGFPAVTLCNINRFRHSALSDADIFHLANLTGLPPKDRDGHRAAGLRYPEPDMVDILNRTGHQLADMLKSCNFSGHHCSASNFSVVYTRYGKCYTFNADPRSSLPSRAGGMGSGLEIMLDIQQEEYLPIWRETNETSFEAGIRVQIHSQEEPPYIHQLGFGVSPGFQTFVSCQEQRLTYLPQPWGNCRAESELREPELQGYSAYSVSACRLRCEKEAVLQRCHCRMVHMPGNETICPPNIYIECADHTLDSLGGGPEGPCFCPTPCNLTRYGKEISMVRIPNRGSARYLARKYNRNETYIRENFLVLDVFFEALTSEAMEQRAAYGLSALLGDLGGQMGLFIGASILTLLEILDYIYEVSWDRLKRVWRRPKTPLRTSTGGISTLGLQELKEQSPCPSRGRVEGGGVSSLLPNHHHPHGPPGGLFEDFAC
Description: Human HEK293 cells were transfected with human BNaC4 (phBNaC4) together with the pEGFP vector (Clontech). Transient transfections 2 μg of phBNAC4 together with 1 μg pEGFP per 10^6 cells per 100 mm dish are performed using the Effectene transfection kit (Quiagen; 301425). Two to three days after transfection, cells are plated onto 12 mm round coverslips and maintained in growth media overnight. After one day, wells were tested for their whole cell response to application of low pH from nearby puffer pipettes using whole cell voltage clamp. Cells expressing GFP were tested (GFP-positive cells). Transfections with vector alone with GFP were used as controls (GFP-positive). […] The standard physiological saline (“Tyrodes”) contained: 130 mM NaCl, 4 mM KCl, 1 mM CaCl2, 1.2 mM MgCl2, and 10 mM hemi-Na-HEPES (pH 7.3, 295-300 mOsm as measured using a Wescor 5500 vapor-pressure (Wescor, Inc., Logan, Utah). Recording electrodes were fabricated from borosilicate capillary tubing (R6; Garner Glass, Claremont, Calif.), the tips are coated with dental periphery wax (Miles Laboratories, South Bend, Ind.), and have resistances of 1-2 MΩ when containing intracellular saline: 100 mM K-gluconate, 25 mM KCl, 0.483 mM CaCl2, 3 mM MgCl2, 10 mM hemi-Na-HEPES and 1 mM K4-BAPTA (100 nM free Ca^+2); pH 7.4, with dextrose added to achieve 290 mOsm). […]

N=C(N)NC(=O)c1nc(Cl)c(N)nc1N [amiloride]
IC50 [1]: 21 µM | Amiloride sensitivity (block of channels) [2]: Amiloride blocked gain of function | block of the pH 4.5 effect (current elicited by pH 4.5) [3]: 98+/−2%
